Measurements reported in patent publication US12448388B2, “PRMT5 inhibitors and uses thereof” (Gilead Sciences, Inc., priority 2023, dated 2025).
Read-outs that look alike come from different tables or passages of the source.

Test system: HCT116 MTAP-deleted cell lines
Test: Cell viability assay (CellTiter-Glo, 7 days), HCT116 MTAP-deleted
Type: cell-based
Conditions: Homo sapiens, HCT-116, HCT116 MTAP-deleted, class symbols, read-out: CC50
How it was run: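 Dose-response, PRMT5 inhibitors from DMSO serial dilution, pre-spotted; cells seeded onto compound plates. 7 d, 37 °C/5% CO2/90% RH. Readout: CTG luminescence → CC50.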

Row | SMILES | CC50 (cell viability assay) | CC50 (cell viability)
1 | Cc1ncn2c1c(N)nc1cc(F)c(C(=O)N3C[C@@H](C)O[C@@H]4Cc5cc(C(F)(F)F)ccc5[C@@H]43)cc12 [Fg-34, (4-amino-7-fluoro-3-methylimidazo[1,5-a]quinoxalin-8-yl)((2R,4aS,9aR)-2-methyl-7-(trifluoromethyl)-2,3,9,9a-tetrahydroindeno[2,1-b][1,4]oxazin-4(4aH)-yl)methanone] | < 100 nM | 
2 | Cc1ncc2c(N)nc3cc(Cl)c(C(=O)N4CCC[C@@H]5Oc6nc(C(F)(F)F)ccc6[C@@H]54)cc3n12 (racemic) [Ff-334, Rac-4-amino-7-chloro-1-methylimidazo[1,5-a]quinoxalin-8-yl)((4aS,9bS)-7-(trifluoromethyl)-3,4,4a,9b-tetrahydrofuro[2,3-b:4,5-b′]dipyridin-1(2H)-yl)methanone] |  | < 100 nM
3 | Cc1ncc2c(N)nc3cnc(C(=O)N4C[C@H](C)O[C@@H]5Cc6cc(Cl)ccc6[C@@H]54)cc3n12 (single isomer, unassigned) [Ff-464] | 100 to 1000 nM | 
4 | Nc1nc2cc(F)c(C(=O)N3CC[C@H]4C[C@@H]3c3cc(F)c(C(F)(F)F)cc3O4)cc2n2cncc12 [Ff-636, (4-amino-7-fluoroimidazo[1,5-a]quinoxalin-8-yl)((2S,6R)-8-fluoro-9-(trifluoromethyl)-3,4-dihydro-2H-2,6-methanobenzo[b][1,5]oxazocin-5(6H)-yl)methanone] | < 100 nM | 
5 | CCN(C(=O)c1cc2c(cn1)nc(N)c1c(C)ncn12)[C@@H]1COc2cc(C(F)(F)F)ccc21 [Ff-610, (S)-4-amino-N-ethyl-3-methyl-N-(6-(trifluoromethyl)-2,3-dihydrobenzofuran-3-yl)imidazo[1,5-a]pyrido[3,4-e]pyrazine-8-carboxamide] | < 100 nM | 
6 | CN(C(=O)c1cc2c(cc1F)nc(N)c1cncn12)[C@@H]1COc2cc(C#CC3(F)COC3)ccc21 [Ff-440, 4-amino-7-fluoro-N-[(3S)-6-[2-(3-fluorooxetan-3-yl)ethynyl]-2,3-dihydrobenzofuran-3-yl]-N-methyl-imidazo[1,5-a]quinoxaline-8-carboxamide] | < 100 nM | 
7 | CN(C(=O)c1cc2c(cc1C#N)nc(N)c1cncn12)[C@@H]1COc2cc(C(F)(F)F)ccc21 [Ff-490, (S)-4-amino-7-cyano-N-methyl-N-(6-(trifluoromethyl)-2,3-dihydrobenzofuran-3-yl)imidazo[1,5-a]quinoxaline-8-carboxamide] | < 100 nM | 
8 | CN(C(=O)c1cc2c(cc1F)nc(N)c1cncn12)C1CCCc2cc(C(F)(F)F)ccc21 (stereo not drawn) [Ff-430, 4-amino-7-fluoro-N-methyl-N-[6-(trifluoromethyl)tetralin-1-yl]imidazo[1,5-a]quinoxaline-8-carboxamide] | 100 to 1000 nM | 
9 | C[C@@H]1C[C@@H]2Oc3c(ccc(C(F)(F)F)c3F)[C@@H]2N(C(=O)c2cc3c(cn2)nc(N)c2cncn23)C1 [Ff-348, (4-aminoimidazo[1,5-a]pyrido[3,4-e]pyrazin-8-yl)((3R,4aS,9bS)-6-fluoro-3-methyl-7-(trifluoromethyl)-3,4,4a,9b-tetrahydrobenzofuro[3,2-b]pyridin-1(2H)-yl)methanone] |  | < 100 nM
10 | Cc1ncc2c(N)nc3cnc(C(=O)N(C)[C@@H]4COc5cc(C(F)(F)F)ccc54)cc3n12 [Ff-509, (S)-4-amino-N,1-dimethyl-N-(6-(trifluoromethyl)-2,3-dihydrobenzofuran-3-yl)imidazo[1,5-a]pyrido[3,4-e]pyrazine-8-carboxamide] | < 100 nM | 
11 | Cc1ncn2c1c(N)nc1cc(F)c(C(=O)N(C)[C@@H]3COc4cc(C(F)(F)F)ccc43)cc12 [Ff-305, (S)-4-amino-7-fluoro-N,3-dimethyl-N-(6-(trifluoromethyl)-2,3-dihydrobenzofuran-3-yl)imidazo[1,5-a]quinoxaline-8-carboxamide] |  | < 100 nM
12 | CN(C(=O)c1cc2c(cc1F)nc(N)c1cncn12)[C@@H]1COc2cc([C@@H]3C[C@H]3C#N)c(F)cc21 [Ff-438, Trans-4-amino-N-[(3S)-6-(2-cyanocyclopropyl)-5-fluoro-2,3-dihydrobenzofuran-3-yl]-7-fluoro-N-methyl-imidazo[1,5-a]quinoxaline-8-carboxamide] | < 100 nM | 
13 | CN(C(=O)c1cc2c(cc1F)nc(N)c1cncn12)[C@@H]1COc2cc(C3COC3)ccc21 [Ff-573, (S)-4-amino-7-fluoro-N-methyl-N-(6-(oxetan-3-yl)-2,3-dihydrobenzofuran-3-yl)imidazo[1,5-a]quinoxaline-8-carboxamide] | 100 to 1000 nM | 
14 | CN(C(=O)c1cc2c(cc1F)nc(N)c1cncn12)[C@@H]1COc2cc([C@H]3C[C@@H]3C#N)ccc21 (single isomer, unassigned) [Ff-481] | < 100 nM | 
15 | Cc1ncc2c(N)nc3ccc(C(=O)N4C[C@@H](C)O[C@@H]5Cc6cc(OC(F)(F)F)ccc6[C@@H]54)cc3n12 (single isomer, unassigned) [Ff-189] |  | 100 to 1000 nM
16 | CC1Oc2cc(C(F)(F)F)ccc2C1N(C)C(=O)c1cc2c(cc1F)nc(N)c1cncn12 (stereo not drawn) [Ff-114, 4-amino-7-fluoro-N-methyl-N-(2-methyl-6-(trifluoromethyl)-2,3-dihydrobenzofuran-3-yl)imidazo[1,5-a]quinoxaline-8-carboxamide] |  | < 100 nM
17 | Nc1nc2cc(F)c(C(=O)N3CCO[C@@H]4Cc5c(cc(F)c(Br)c5F)[C@@H]43)cc2n2cncc12 [Ff-161, (4-amino-7-fluoroimidazo[1,5-a]quinoxalin-8-yl)((4aS,9aR)-7-bromo-6,8-difluoro-2,3,9,9a-tetrahydroindeno[2,1-b][1,4]oxazin-4(4aH)-yl)methanone] |  | 100 to 1000 nM
18 | Nc1nc2cc(F)c(C(=O)N3CCC(F)(F)CC3c3ccc(C(F)(F)F)cn3)cc2n2cncc12 (stereo not drawn) [Ff-223, (4-amino-7-fluoroimidazo[1,5-a]quinoxalin-8-yl)(4,4-difluoro-2-(5-(trifluoromethyl)pyridin-2-yl)piperidin-1-yl)methanone] |  | 100 to 1000 nM
19 | Cc1ncn2c1c(N)nc1cc(F)c(C(=O)N(C)[C@@H]3COc4cc([C@@H]5C[C@H]5C#N)c(F)cc43)cc12 [Ff-450, Trans-4-amino-N-[(3S)-6-(2-cyanocyclopropyl)-5-fluoro-2,3-dihydrobenzofuran-3-yl]-7-fluoro-N,3-dimethyl-imidazo[1,5-a]quinoxaline-8-carboxamide] | < 100 nM | 
20 | CN(C(=O)c1cc2c(cc1F)nc(N)c1cncn12)[C@@H]1COc2ccc(Br)cc21 [Ff-457, (S)-4-amino-N-(5-bromo-2,3-dihydrobenzofuran-3-yl)-7-fluoro-N-methylimidazo[1,5-a]quinoxaline-8-carboxamide] | < 100 nM | 
21 | CN1CCN(C(=O)c2cc3c(cc2F)nc(N)c2cncn23)C(c2ccc(C(F)(F)F)cn2)C1 (stereo not drawn) [Ff-136, (4-amino-7-fluoroimidazo[1,5-a]quinoxalin-8-yl)(4-methyl-2-(5-(trifluoromethyl)pyridin-2-yl)piperazin-1-yl)methanone] |  | 100 to 1000 nM
22 | Cc1ncn2c1c(N)nc1cc(F)c(C(=O)N(C)[C@@H]3CCc4nc(C(F)(F)F)ccc43)cc12 [Ff-316, (R)-4-amino-7-fluoro-N,3-dimethyl-N-(2-(trifluoromethyl)-6,7-dihydro-5H-cyclopenta[b]pyridin-5-yl)imidazo[1,5-a]quinoxaline-8-carboxamide] |  | < 100 nM
23 | CC(C)N(Cc1ccc(-c2cnn(-c3ccccc3)c2)cc1F)C(=O)c1cc2c(cc1F)nc(N)c1cncn12 [Ff-593, 4-amino-7-fluoro-N-(2-fluoro-4-(1-phenyl-1H-pyrazol-4-yl)benzyl)-N-isopropylimidazo[1,5-a]quinoxaline-8-carboxamide] | < 100 nM | 
24 | Cn1cc(N(Cc2ccc(C(F)(F)F)cn2)C(=O)c2cc3c(cc2F)nc(N)c2cncn23)cn1 [Ff-46, 4-amino-7-fluoro-N-(1-methyl-1H-pyrazol-4-yl)-N-((5-(trifluoromethyl)pyridin-2-yl)methyl)imidazo[1,5-a]quinoxaline-8-carboxamide] |  | < 100 nM
25 | CN(Cc1ccc(F)cc1Cl)C(=O)c1cc2c(cc1F)nc(N)c1cncn12 [Ff-31, 4-amino-N-(2-chloro-4-fluorobenzyl)-7-fluoro-N-methylimidazo[1,5-a]quinoxaline-8-carboxamide] |  | 100 to 1000 nM
26 | C[C@H]1CN(C(=O)c2ccc3nc(N)c4cncn4c3c2)[C@H]2c3ccc(OC(F)(F)F)cc3C[C@H]2O1 (single isomer, unassigned) [Ff-188] |  | < 100 nM
27 | Cc1ncc2c(N)nc3cc(F)c(C(=O)N4C[C@@H](F)C[C@@H]5Oc6cc(C(F)(F)F)ccc6[C@@H]54)cc3n12 [Ff-657, (4-amino-7-fluoro-1-methylimidazo[1,5-a]quinoxalin-8-yl)((3S,4aS,9bS)-3-fluoro-7-(trifluoromethyl)-3,4,4a,9b-tetrahydrobenzofuro[3,2-b]pyridin-1(2H)-yl)methanone] | < 100 nM | 
28 | C[C@@H]1C[C@@H]2Oc3cc(OC(F)(F)F)ccc3[C@@H]2N(C(=O)c2cc3c(cc2F)nc(N)c2cncn23)C1 [Ff-500, (4-amino-7-fluoroimidazo[1,5-a]quinoxalin-8-yl)((3R,4aS,9bS)-3-methyl-7-(trifluoromethoxy)-3,4,4a,9b-tetrahydrobenzofuro[3,2-b]pyridin-1(2H)-yl)methanone] | < 100 nM | 
29 | Cn1c(CN(C(=O)c2cc3c(cc2F)nc(N)c2cncn23)N2CCCC2=O)nc2cc(C(F)(F)F)ccc21 [Fb-7, 4-amino-7-fluoro-N-((1-methyl-5-(trifluoromethyl)-1H-benzo[d]imidazol-2-yl)methyl)-N-(2-oxopyrrolidin-1-yl)imidazo[1,5-a]quinoxaline-8-carboxamide] |  | < 100 nM
30 | Nc1nc2cnc(C(=O)N3CCO[C@@H]4Cc5cc(C(F)(F)F)cc(F)c5[C@@H]43)cc2n2cncc12 [Ff-540, (4-aminoimidazo[1,5-a]pyrido[3,4-e]pyrazin-8-yl)((4aS,9aR)-5-fluoro-7-(trifluoromethyl)-2,3,9,9a-tetrahydroindeno[2,1-b][1,4]oxazin-4(4aH)-yl)methanone] | 100 to 1000 nM | 
